Where two headings read alike, the source gives them in different places. Marks after values point to notes of the source that are not given here.
How the values were obtained:
[1] = test system: white mice; conditions: cited from earlier work
[2] = test system: patients with chronic inflammatory bowel disease; assay: Clinical disease activity, symptoms, compliance and tolerability during oral iron therapy; type: in vivo, human; conditions: for total number of defecations per week: median (range)
Description: The status of the clinical disease was recorded before (day 1) and after (day 15) the iron therapy. The clinical disease activity was evaluated in patients with Crohn's disease with the “Harvey-Bradshaw Simple Index of Crohn's Disease Activity” (Harvey, R F., Bradshaw, J M., Lancet, 1980; 1:514). The Harvey-Bradshaw Simple Index is based on 5 parameters: general well-being, abdominal pain, stool frequency, abdominal mass and extraintestinal complications. The maximum score is 25 and scores of ≧5 indicate active Crohn's disease.
In patients with colitis ulcerosa, the “Simple Clinical Colitis Activity Index” was recorded (Walmsley, R S., Ayres, R C., Pounder, R E., Allan, R N., Gut 1998; 43; 29-32). The Simple Clinical Colitis Activity Index is based on 6 parameters: general well-being, stool frequency during the day and during the night, urgency of defecation, blood in the stool and extraintestinal complications. The maximum score is 20 and values of ≧4 indicate active colitis ulcerosa.
The Harvey-Bradshaw Simple Index and the Simple Clinical Colitis Activity Index are the same in respect of structure and the clinical significance of a given change in the scores. In order to allow the results of patients with Crohn's disease and colitis ulcerosa to be considered together, the activity scores were calculated as the actual score divided by the maximum score.
All the patients completed the particular Crohn's Disease Activity Index (CDAI) diary card (Best, W R., Becktel, J M., Singleton, J W., Kern, F. Jr., Gastroenterology 1976; 70:439-444) in the week before the start of the iron therapy and during the two weeks of iron therapy. The CDAI diary card comprises daily recording of general well-being, abdominal pain and the number of liquid or very soft stools. The total of seven daily records gives a score for each symptom. The higher the score, the more the patient is adversely affected. The medicament was administered during the study for 14 days and the mean for the two weeks is therefore used for the analysis. The patients also documented the occurrence of nausea before and during the iron therapy.
Patients who discontinued treatment with the medicament because of a deterioration in the symptoms were included in the analysis of the clinical disease activity and the symptom scores. Their disease activity scores were increased by two points, and the symptom scores were increased by one point per day.

[3] = test system: patients with chronic inflammatory bowel disease; assay: Markers of oxidative stress (plasma, urine) before and after 14 days oral iron therapy; conditions: for P-malondialdehyde / P-beta-carotene / P-cysteine / P-cysteinyl-glycine / P-glutathione / P-homocysteine / P-vitamin A / P-vitamin C / P-vitamin E: plasma; for P-malondialdehyde / P-beta-carotene / P-cysteine / P-cysteinyl-glycine / P-glutathione / P-homocysteine / P-vitamin A / P-vitamin C / P-vitamin E / U-8-iso-PGF2α: mean (SEM); for U-8-iso-PGF2α: urine
Description: (§1) Analysis of the blood, urine and stool and the clinical evaluation of the disease were carried out on day 1 and 15.
(§2) The tablets were taken in accordance with the manufacturer's recommendations. Patient compliance was defined as the consumption of the tablets handed out, 80% being regarded as satisfactory.
(§3) Blood samples were taken, after fasting during the night, on the morning of day 1 and day 15.
Urine samples were collected on the morning of day 1 and day 15 and analysed for creatinine. Butyl-hydroxy-toluene (BHT) was added to 2 ml urine to a final concentration of 20 mM. The samples were then stored at −80° C. until analysed for urine 8-isoprostaglandin F2α (8-iso-PGF2α).
The values were analysed using the Wilcoxon test for pair differences, and the median and range are stated. The comparison of ratios was evaluated with the Fisher Exact test. P values of less than 0.05 are considered to be statistically significant. The data were analysed using the GraphPad Prism 4 for Windows statistics software package (GraphPad Software, Inc., San Diego, USA).

[4] = test system: patients with chronic inflammatory bowel disease; conditions: in vivo
Description: as §1, §2, §3
The values were analysed using the Wilcoxon test for pair differences, and the median and range are stated. The comparison of ratios was evaluated with the Fisher Exact test. […] The data were analysed using the GraphPad Prism 4 for Windows statistics software package (GraphPad Software, Inc., San Diego, USA).

[5] = mean of differences after vs before 14 days treatment
[6] = after 14 days oral treatment (day 15)

SMILES: O=S(=O)([O-])[O-].[Fe+2] [Iron(II) sulfate, iron(II) sulfate]
- LD50 [1]: 230 mg iron/kg
- influence on general wellbeing or abdominal pain score ([2]; CDAI diary card): Neither iron(II) sulfate nor iron(III)-polymaltose complex had an influence
- total number of defecations per week ([2]; before treatment): 19 (7-106)
- change of clinical disease activity indices ([2]; day 15 vs day 1): Neither the treatment with iron(II) sulfate (p=0.45) nor the treatment with iron(III)-polymaltose complex (p=0.80) substantially changed the clinical disease activity indices
- total number of defecations per week ([2]; during the treatment): 24 (7-55)
- patients who discontinued the treatment (intolerable bowel movements, abdominal pain and nausea) ([2]; of n=21 iron(II) sulfate, n=20 iron(III)-polymaltose complex): Three patients
- Increased nausea reported ([2]; patients reporting / patients treated): 9/21
- change in plasma MDA values [3, 5]: 95 nmol/L
- change in urine iso-PGF2α values [3, 5]: 194 pg/mg creatinine
- P-malondialdehyde [3, 6]: 395 (25)* nmol/l
- P-beta-carotene ([3]; after 14 days oral treatment): 0.67 (0.10) μmol/l
- P-cysteine ([3]; after 14 days oral treatment): 199 (13) μmol/l
- P-cysteinyl-glycine ([3]; after 14 days oral treatment): 16.6 (1.2) μmol/l
- P-glutathione ([3]; after 14 days oral treatment): 5.08 (0.54) μmol/l
- P-homocysteine ([3]; after 14 days oral treatment): 4.58 (0.47) μmol/l
- P-vitamin A ([3]; after 14 days oral treatment): 1.8 (0.2) μmol/l
- P-vitamin C ([3]; after 14 days oral treatment): 58.6 (5.4) μmol/l
- P-vitamin E ([3]; after 14 days oral treatment): 29.3 (1.5) μmol/l
- P-malondialdehyde ([3]; before treatment (day 1)): 294 (25) nmol/l
- P-beta-carotene ([3]; before treatment): 0.67 (0.09) μmol/l
- P-cysteine ([3]; before treatment): 203 (11) μmol/l
- P-cysteinyl-glycine ([3]; before treatment): 16.7 (1.1) μmol/l
- P-glutathione ([3]; before treatment): 5.05 (0.48) μmol/l
- P-homocysteine ([3]; before treatment): 4.87 (0.59) μmol/l
- P-vitamin A ([3]; before treatment): 1.7 (0.2) μmol/l
- P-vitamin C ([3]; before treatment): 60.9 (6.0) μmol/l
- P-vitamin E ([3]; before treatment): 30.2 (1.8) μmol/l
- U-8-iso-PGF2α [3, 6]: 629 (124) pg/mg creatinine
- U-8-iso-PGF2α ([3]; before treatment (day 1)): 417 (46) pg/mg creatinine
- B-ESR [4]: 11 (2) mm/h
- B-erythrocyte count [4]: 4.8 (0.1) 10^12/l
- B-haematocrit [4]: 41 (1) %
- B-haemoglobin [4]: 13.1 (0.4) g/dl
- B-leukocyte count [4]: 6.5 (0.5) 10^9/l
- B-platelet count [4]: 324 (23) 10^9/l
- B-reticulocyte count [4]: 0.068 (0.006) 10^12/l
- Hypochromic red cells (HYPO) [4]: 10.4 (3.6) %
- MCH [4]: 27 (0.8) pg
- MCHC [4]: 31.8 (0.4) g/dl
- MCV [4]: 86 (1.6) fl
- Reticulocyte haemoglobin (CHr) [4]: 29.3 (0.8) pg
- S-CRP [4]: 7 (2) mg/l
- S-ferritin [4]: 13 (2) μg/l
- S-iron [4]: 11.1 (2.0) μmol/l
- S-total iron binding capacity [4]: 81 (2) μmol/l
- decrease in the hypochromic red cells [4]: −2.5%
- decrease in the serum total iron binding capacity [4]: -7 µmol/L
- increase in blood reticulocyte count [4]: 1.6e+10 L⁻¹
- increase in s-ferritin [4]: 12 µg/L
- increase in the reticulocyte haemoglobin [4]: 1.9 pg
- increase of blood haemoglobin [4]: Neither iron(II) sulfate nor iron(III)-polymaltose complex increased the blood haemoglobin
- B-ESR ([4]; po): 10 (2) mm/h
- B-erythrocyte count ([4]; po): 4.8 (0.1) 10^12/l
- B-haematocrit ([4]; po): 42 (1)* %
- B-haemoglobin ([4]; po): 13.3 (0.3) g/dl
- B-leukocyte count ([4]; po): 6.3 (0.4) 10^9/l
- B-platelet count ([4]; po): 306 (21) 10^9/l
- B-reticulocyte count ([4]; po): 0.084 (0.007) 10^12/l
- Hypochromic red cells (HYPO) ([4]; po): 8.8 (3.2)* %
- MCH ([4]; po): 28 (0.8)*# pg
- MCHC ([4]; po): 32.0 (0.3) g/dl
- MCV ([4]; po): 87 (1.3)* fl
- Reticulocyte haemoglobin (CHr) ([4]; po): 31.1 (0.7)* pg
- S-CRP ([4]; po): 6 (2) mg/l
- S-ferritin ([4]; po): 25 (3)*# μg/l
- S-iron ([4]; po): 14.2 (2.2) μmol/l
- S-total iron binding capacity ([4]; po): 74 (2)*# μmol/l
